The text below walks through data of patent publication US20240294499A1, “TARGETED PROTEIN DEGRADATION USING BIFUNCTIONAL COMPOUNDS THAT BIND UBIQUITIN LIGASE AND TARGET MCL-1 PROTEIN” (Captor Therapeutics S.A., priority 2021, published 2024).

Test [1] relates to ARH-77 cells. The test is described as follows: Cell viability assay (CellTiter-Glo), ARH-77. It counts as cell-based. The settings on record: 1% FBS; for IC50: Homo sapiens, ARH-77, 24 hours incubation, read-out: Average pIC50 by molecule ARH-77 (converted). The essentials: (§1)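 OPM-2, MV-4-11 and ARH-77 cells were grown in medium with 1% FBS and treated with compound in 1/3 dilutions from 30 uM (9–12 points, 0.5% DMSO). Viability was read by CellTiter-Glo luminescence after 24 hours and normalized to DMSO control.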

Test [2] relates to MV-4-11 cells. Briefly: Cell viability assay (CellTiter-Glo), MV-4-11. The settings on record: 1% FBS; for IC50: Homo sapiens, MV4-11, 24 hours incubation, read-out: Average pIC50 by molecule MV-4-11 (converted). It counts as cell-based. The essentials: as §1
(In general: In ATP-based viability assays light output follows the ATP content of the culture.)

The target in test [3] is T1, [MCL-1]-[compound of formula (I)]-[CRBN/DDB1] complex (Homo sapiens, UniProt Q07820+Q96SW2). Briefly: AlphaLISA dose response ternary complex formation assay. Format: binding. The settings on record: for EC50: read-out: AlphaLISA dose response Average pEC50 by molecule (converted). The essentials: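 EC50 comes from dose–response of AlphaLISA luminescence (excitation 680, emission 615 nm), normalised between DMSO background and an internal positive control, with concentrations past the hook point dropped. Ternary complex formed by mixing bead-bound biotin-hMCL-1 and His-CRBN/DDB1 (protein solutions 40 and 200 nM) with compound in 2% DMSO, 30 min, 25 °C.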
In general terms: Bead proximity is the source of the signal in Alpha formats.

Test [4] has as its target T1, [MCL-1]-[compound of formula (I)]-[CRBN/DDB1] complex. Briefly: HTRF ternary complex assay. Format: binding. To be noted: ternary complex formation; for EC50: read-out: HTRF ternary complex Average pEC50 by molecule (converted). The method, then: The effect of the bifunctional compounds of the invention on the formation of a ternary complex composed of [MCL-1]-[compound of formula (I)]-[CRBN/DDB1] was investigated.
Mix of protein solution were prepared: • 48 nM hMcl-1 and 105.6 nM CRBN was prepared in PPI Europium detection buffer with 2 mM DTT. • Acceptor and donor stock solutions were diluted 100 times in PPI Europium detection buffer. Equal volumes of both reagents were mixed. Finally giving 3 nM of Streptavidin-Eu cryptate […] and 6.67 nM of Anti-6× his-d2 […].
5 μl of protein mix was dispensed to all wells. The tested compounds in dose-response were dispensed onto a white 384-well low volume plate (Greiner, 784075). DMSO was backfilled to all wells, resulting in a final DMSO content of 0.5%. Wells containing only DMSO served as background. Next, 5 μl of solution with donor and acceptor was added to the wells.
The plate was sealed with transparent film and shaken using a VibroTurbulator for 60 see at level 3. The plate was then spun down shortly (10 s, 1000 rcf) and incubated at 25° C. for 180 min.
The read-out was performed with plate reader (Pherastar, BMG Labtech) in time resolved fluorescence mode. Filterset: TR 337 665 620.
The results were analyzed as follows: • 1) an average of fluorescence for background signal was calculated and used as a negative control; • 2) raw fluorescence values for tested compounds were normalized against negative controls; • 3) bell shape curve was fitted to a gaussian distribution using a non-linear least squares Gauss-Newton algorithm; • 4) EC50 and pEC50 values were determined.
Background: Time-resolved FRET reads energy transfer from a long-lived donor to a nearby acceptor.

T1 sequence (Q07820 whole entry): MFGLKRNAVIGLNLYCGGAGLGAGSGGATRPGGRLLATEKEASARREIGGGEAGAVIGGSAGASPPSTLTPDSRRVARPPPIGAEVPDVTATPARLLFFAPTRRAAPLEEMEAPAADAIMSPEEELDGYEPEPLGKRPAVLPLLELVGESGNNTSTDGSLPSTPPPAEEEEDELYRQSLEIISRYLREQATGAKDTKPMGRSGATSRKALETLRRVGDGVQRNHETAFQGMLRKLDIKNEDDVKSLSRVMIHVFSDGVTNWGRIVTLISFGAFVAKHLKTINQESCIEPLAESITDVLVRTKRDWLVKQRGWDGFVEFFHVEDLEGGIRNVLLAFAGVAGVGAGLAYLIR
T1 sequence (Q96SW2 whole entry): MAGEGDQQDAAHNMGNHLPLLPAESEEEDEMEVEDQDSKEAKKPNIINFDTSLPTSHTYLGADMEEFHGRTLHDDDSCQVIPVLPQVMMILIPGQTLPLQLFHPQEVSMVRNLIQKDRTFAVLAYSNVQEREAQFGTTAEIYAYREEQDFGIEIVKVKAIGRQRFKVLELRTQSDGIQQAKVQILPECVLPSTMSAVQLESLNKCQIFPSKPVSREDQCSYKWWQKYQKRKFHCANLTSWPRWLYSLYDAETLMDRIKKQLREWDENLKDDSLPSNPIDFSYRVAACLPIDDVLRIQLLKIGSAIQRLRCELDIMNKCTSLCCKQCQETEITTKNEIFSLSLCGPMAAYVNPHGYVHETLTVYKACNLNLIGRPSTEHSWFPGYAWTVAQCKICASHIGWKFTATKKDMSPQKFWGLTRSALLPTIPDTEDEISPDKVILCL
T1 sequence (Q16531 whole entry partner): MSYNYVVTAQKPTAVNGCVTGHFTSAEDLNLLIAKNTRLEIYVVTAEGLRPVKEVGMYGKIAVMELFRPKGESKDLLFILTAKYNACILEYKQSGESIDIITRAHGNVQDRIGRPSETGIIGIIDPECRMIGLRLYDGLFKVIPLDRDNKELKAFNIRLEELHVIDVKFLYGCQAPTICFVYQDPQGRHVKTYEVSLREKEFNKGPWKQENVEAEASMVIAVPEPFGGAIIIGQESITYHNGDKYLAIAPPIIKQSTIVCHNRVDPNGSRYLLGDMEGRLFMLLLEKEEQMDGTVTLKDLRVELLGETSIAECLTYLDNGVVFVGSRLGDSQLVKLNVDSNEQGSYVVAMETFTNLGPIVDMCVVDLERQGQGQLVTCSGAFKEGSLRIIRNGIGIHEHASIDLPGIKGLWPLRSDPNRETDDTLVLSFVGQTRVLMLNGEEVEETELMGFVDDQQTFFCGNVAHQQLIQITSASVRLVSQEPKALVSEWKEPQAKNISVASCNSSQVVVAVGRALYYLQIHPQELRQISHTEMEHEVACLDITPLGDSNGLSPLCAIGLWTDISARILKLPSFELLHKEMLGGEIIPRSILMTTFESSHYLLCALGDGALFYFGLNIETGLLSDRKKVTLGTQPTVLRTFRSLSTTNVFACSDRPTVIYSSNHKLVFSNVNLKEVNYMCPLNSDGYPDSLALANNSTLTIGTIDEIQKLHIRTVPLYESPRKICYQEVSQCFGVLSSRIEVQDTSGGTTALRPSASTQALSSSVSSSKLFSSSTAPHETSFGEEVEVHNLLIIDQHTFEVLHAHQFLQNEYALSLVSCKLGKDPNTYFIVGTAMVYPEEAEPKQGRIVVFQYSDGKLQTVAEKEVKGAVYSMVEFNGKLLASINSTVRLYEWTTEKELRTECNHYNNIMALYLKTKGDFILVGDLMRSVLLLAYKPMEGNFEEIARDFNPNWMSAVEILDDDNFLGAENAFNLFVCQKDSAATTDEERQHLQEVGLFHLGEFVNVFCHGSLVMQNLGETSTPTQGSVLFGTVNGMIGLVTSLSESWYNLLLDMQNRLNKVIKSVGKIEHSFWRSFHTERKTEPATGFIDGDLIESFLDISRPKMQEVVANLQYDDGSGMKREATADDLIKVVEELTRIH

Regarding `Cc1nn(C)c(C)c1-c1c(Cl)ccc2c(CCCOc3cccc4cc(F)ccc34)c(C(=O)O)n(CCN3CCN(C(=O)COc4cccc5c4CN(C4CCC(=O)NC4=O)C5=O)CC3)c12` (atropisomer, axis not shown; (Sa)) [Compound 295, (Sa)-6-Chloro-1-(2-(4-(2-((2-(2,6-dioxopiperidin-3-yl)-1-oxoisoindolin-4-yl)oxy)acetyl)piperazin-1-yl)ethyl)-3-(3-((6-fluoronaphthalen-1-yl)oxy)propyl)-7-(1,3,5-trimethyl-1H-pyrazol-4-yl)-1H-indole-2-carboxylic acid], the “Average pIC50 by molecule ARH-77” value in test [1] (24 hours incubation) was less than 5.0. Also, the “Average pIC50 by molecule MV-4-11” value in test [2] (24 hours incubation) is recorded as no less than 7.5. Besides, in test [3], the “AlphaLISA dose response Average pEC50 by molecule” value is greater than 7. Moreover, in test [4], the “HTRF ternary complex Average pEC50 by molecule” value is greater than 7.

Turning to `Cc1nn(C)c(C)c1-c1c(Cl)ccc2c(CCCOc3cccc4ccccc34)c(C(=O)O)n(CCN3CCC(NC(=O)COc4cccc5c4CN(C4CCC(=O)NC4=O)C5=O)CC3)c12` (stereo not shown) [Compound 221, 6-chloro-1-{2-[4-(2-{[2-(2,6-dioxopiperidin-3-yl)-1-oxo-2,3-dihydro-1H-isoindol-4-yl]oxy}acetamido)piperidin-1-yl]ethyl}-3-[3-(naphthalen-1-yloxy)propyl]-7-(1,3,5-trimethyl-1H-pyrazol-4-yl)-1H-indole-2-carboxylic acid], the IC50 is greater than 31600 nM in test [1] and no more than 10000 nM in test [2]. The EC50 in test [3] and in test [4] was less than 100 nM throughout.

Regarding `Cc1nn(C)c(C)c1-c1c(Cl)ccc2c(CCCOc3cccc4cc(F)ccc34)c(C(=O)O)n(CCN3CCN(C(=O)Cn4c(C)nc5c(C(=O)NC6CCC(=O)NC6=O)ccc(C)c54)CC3)c12` (stereo not shown) [Compound 270, 6-Chloro-1-{2-[4-(2-{4-[(2,6-dioxopiperidin-3-yl)carbamoyl]-2,7-dimethyl-1H-1,3-benzodiazol-1-yl}acetyl)piperazin-1-yl]ethyl}-3-{3-[(6-fluoronaphthalen-1-yl)oxy]propyl}-7-(1,3,5-trimethyl-1H-pyrazol-4-yl)-1H-indole-2-carboxylic acid], the values for the IC50 in test [1] and in test [2] were greater than 10000 nM and no more than 100 nM, respectively. For the same compound, the EC50 was less than 100 nM in test [3] and less than 10 nM in test [4].

In the case of `Cc1nn(C)c(C)c1-c1c(Cl)ccc2c(CCCOc3cccc4cc(F)ccc34)c(C(=O)O)n(CCCOCCn3c(C)nc4c(C(=O)NC5CCC(=O)NC5=O)cccc43)c12` (stereo not shown) [Compound 280, 6-Chloro-1-[3-(2-{4-[(2,6-dioxopiperidin-3-yl)carbamoyl]-2-methyl-1H-1,3-benzodiazol-1-yl}ethoxy)propyl]-3-{3-[(6-fluoronaphthalen-1-yl)oxy]propyl}-7-(1,3,5-trimethyl-1H-pyrazol-4-yl)-1H-indole-2-carboxylic acid], the IC50 is greater than 3160 nM in test [1] and no more than 100 nM in test [2]. Also, the EC50 in test [3] and in test [4] was less than 10 nM throughout.

Consider `Cc1nn(C)c(C)c1-c1c(Cl)ccc2c(CCCOc3cccc4cc(F)ccc34)c(C(=O)O)n(CCCNC(=O)Cn3c(C)nc4c(C(=O)NC5CCC(=O)NC5=O)cccc43)c12` (stereo not shown) [Compound 281, 6-Chloro-1-[3-(2-{4-[(2,6-dioxopiperidin-3-yl)carbamoyl]-2-methyl-1H-1,3-benzodiazol-1-yl}acetamido)propyl]-3-{3-[(6-fluoronaphthalen-1-yl)oxy]propyl}-7-(1,3,5-trimethyl-1H-pyrazol-4-yl)-1H-indole-2-carboxylic acid], for which the IC50 in test [1] was greater than 10000 nM; in test [2], no more than 100 nM. In addition, the EC50 in test [3] was less than 100 nM; in test [4] it was less than 10 nM.

Regarding `Cc1nn(C)c(C)c1-c1c(Cl)ccc2c(CCCOc3cccc4cc(F)ccc34)c(C(=O)O)n(CCN3CCC4CN(C(=O)COc5cccc6c5CN(C5CCC(=O)NC5=O)C6=O)CC43)c12` (stereo not shown) [Compound 301, 6-Chloro-1-{2-[5-(2-{[2-(2,6-dioxopiperidin-3-yl)-1-oxo-2,3-dihydro-1H-isoindol-4-yl]oxy}acetyl)-octahydropyrrolo[2,3-c]pyrrol-1-yl]ethyl}-3-{3-[(6-fluoronaphthalen-1-yl)oxy]propyl}-7-(1,3,5-trimethyl-1H-pyrazol-4-yl)-1H-indole-2-carboxylic acid], the figures for the IC50 in test [1] and in test [2] were greater than 10000 nM and no more than 100 nM, respectively. Besides, the EC50 in test [3] and in test [4] was less than 10 nM each time.

Consider `Cc1nn(C)c(C)c1-c1c(Cl)ccc2c(CCCOc3cccc4cc(F)ccc34)c(C(=O)O)n(CCN3CCC(Nc4cccc5c4C(=O)N(C4CCC(=O)NC4=O)C5=O)CC3)c12` (stereo not shown) [Compound 308], for which the values for the IC50 in test [1] and in test [2] were greater than 3160 nM and no more than 316 nM, respectively. In addition, the EC50 in test [3] and in test [4] was less than 100 nM in each case.

Turning to `Cc1nn(C)c(C)c1-c1c(Cl)ccc2c(CCCOc3cccc4cc(F)ccc34)c(C(=O)O)n(CCN3CCN(CC4CN(c5cc6c(cc5F)C(=O)N(C5CCC(=O)NC5=O)C6=O)C4)CC3)c12` (stereo not shown) [Compound 334, 6-Chloro-1-(2-(4-((1-(2-(2,6-dioxopiperidin-3-yl)-6-fluoro-1,3-dioxoisoindolin-5-yl)azetidin-3-yl)methyl)piperazin-1-yl)ethyl)-3-(3-((6-fluoronaphthalen-1-yl)oxy)propyl)-7-(1,3,5-trimethyl-1H-pyrazol-4-yl)-1H-indole-2-carboxylic acid], the values for the IC50 in test [1] and in test [2] were greater than 3160 nM and no more than 100 nM, respectively. In test [4], the EC50 was less than 10 nM.

Turning to `Cc1nn(C)c(C)c1-c1c(Cl)ccc2c(CCCOc3cccc4cc(F)ccc34)c(C(=O)O)n(CCN3CCN(C4CN(c5cc6c(cc5F)C(=O)N(C5CCC(=O)NC5=O)C6=O)C4)CC3)c12` (stereo not shown) [Compound 335, 6-Chloro-1-(2-(4-(1-(2-(2,6-dioxopiperidin-3-yl)-6-fluoro-1,3-dioxoisoindolin-5-yl)azetidin-3-yl)piperazin-1-yl)ethyl)-3-(3-((6-fluoronaphthalen-1-yl)oxy)propyl)-7-(1,3,5-trimethyl-1H-pyrazol-4-yl)-1H-indole-2-carboxylic acid], the IC50 in test [1] is greater than 3160 nM; in test [2], no more than 31.6 nM. The EC50 in test [4] is less than 10 nM.

For the compound `Cc1nn(C)c(C)c1-c1c(Cl)ccc2c(CCCOc3cccc4cc(F)ccc34)c(C(=O)O)n(CCN3CCC(N4CCN(c5cc6c(cc5F)C(=O)N(C5CCC(=O)NC5=O)C6=O)CC4)CC3)c12` (stereo not shown) [Compound 336, 6-Chloro-1-[2-(4-{4-[2-(2,6-dioxopiperidin-3-yl)-6-fluoro-1,3-dioxo-2,3-dihydro-1H-isoindol-5-yl]piperazin-1-yl}piperidin-1-yl)ethyl]-3-{3-[(6-fluoronaphthalen-1-yl)oxy]propyl}-7-(1,3,5-trimethyl-1H-pyrazol-4-yl)-1H-indole-2-carboxylic acid], the IC50 in test [1] was greater than 10000 nM; in test [2] it was no more than 100 nM. In test [4], the EC50 is less than 10 nM.

Regarding `Cc1nn(C)c(C)c1-c1c(Cl)ccc2c(CCCOc3cccc4cc(F)ccc34)c(C(=O)O)n(CCN3CC(N4CCN(c5cc6c(cc5F)C(=O)N(C5CCC(=O)NC5=O)C6=O)CC4)C3)c12` (stereo not shown) [Compound 337, 6-Chloro-1-(2-(3-(4-(2-(2,6-dioxopiperidin-3-yl)-6-fluoro-1,3-dioxoisoindolin-5-yl)piperazin-1-yl)azetidin-1-yl)ethyl)-3-(3-((6-fluoronaphthalen-1-yl)oxy)propyl)-7-(1,3,5-trimethyl-1H-pyrazol-4-yl)-1H-indole-2-carboxylic acid], the IC50 is greater than 10000 nM in test [1] and no more than 316 nM in test [2]. In addition, the EC50 in test [4] is less than 10 nM.

Turning to `O=C1CCC(N2Cc3c(OCC(=O)N4CCN(CCn5c(C(=O)O)c(CCCOc6cccc7cc(F)ccc67)c6ccc(Cl)c(-c7cnn8cccnc78)c65)CC4)cccc3C2=O)C(=O)N1` (stereo not shown) [Compound 348, 6-Chloro-1-(2-(4-(2-((2-(2,6-dioxopiperidin-3-yl)-1-oxoisoindolin-4-yl)oxy)acetyl)piperazin-1-yl)ethyl)-3-(3-((6-fluoronaphthalen-1-yl)oxy)propyl)-7-(pyrazolo[1,5-a]pyrimidin-3-yl)-1H-indole-2-carboxylic acid], the results for the IC50 in test [1] and in test [2] were greater than 10000 nM and no more than 316 nM, respectively. For the same compound, the EC50 in test [4] is less than 100 nM.
